Experimental data from patent publication US9115092B2, “Substituted quinazoline and pyrido-pyrimidine derivatives” (Asana Biosciences, LLC, priority 2010, dated 2015).

What was measured:
[1] = target: T1, PI3Kα (wild-type), P110/P85α (Homo sapiens, UniProt P42336); experiment: PI3 Kinase TR-FRET assay, PI3Kα (wild-type); format: biochemical
T1 construct: made in house; host or cells: SF9 insect cells
Method in brief: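 TR-FRET read-out of PIP3 formation via biotin-PIP3 displacement (665/615 nm ratio) gave IC50 curves. Enzyme: 5 ng wild-type P110/P85α from Sf9 cells, 60 min RT with compound and PIP2 (MgCl2 40 mM, DTT 5 mM), then 30 min RT kinase reaction at 10 μM ATP and 10 μM PIP2.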

PC3 cells = experiment: XTT assay for cell viability, PC3 cells; format: cell-based, human; conditions: Homo sapiens, PC-3, cell viability
Description: Using a commercial kit from Sigma Aldrich (Catalog #X34251) and following its protocol, PC3 cells in the log phase of growth were employed and seeded at an optimal density of 1000 cell/well on to 96 well plates and incubated for 24 h followed by the addition of compounds of formula (I) in serial dilutions. Compound dilutions were made in DMSO. The cells were incubated with the compounds of formula (I) for 96 h and XTT tetrazolium dye (Sigma, USA) was subsequently added and incubated at 37° C. After the color formation, absorbance was measured at 465 nm in a Spectramax® Gemini spectrophotometer. EC50 values were calculated using a sigmoidal dose response curve fit in GraphPad Prism® v5 software. The tested compounds of formula (I) which caused inhibition of PC3 cell proliferation as determined by this assay protocol are shown in Table 2.

mTOR kinase = target: T2, mTOR kinase (Homo sapiens, UniProt P42345); experiment: mTOR kinase TR-FRET assay; format: biochemical; conditions: read-out: mTO R
T2 construct: purchased Millipore, USA
Method in brief: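 TR-FRET read-out (340 nm excitation, 615/665 nm emission) of Thr389 phosphorylation of a ULight-labeled p70 S6K peptide (50 nM) by mTOR, 20 μM ATP, 60 min room temperature after 60 min compound preincubation. Buffer HEPES pH 7.5 with MnCl2, EGTA; IC50 by sigmoidal dose-response.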

T1 sequence (P42336 whole entry): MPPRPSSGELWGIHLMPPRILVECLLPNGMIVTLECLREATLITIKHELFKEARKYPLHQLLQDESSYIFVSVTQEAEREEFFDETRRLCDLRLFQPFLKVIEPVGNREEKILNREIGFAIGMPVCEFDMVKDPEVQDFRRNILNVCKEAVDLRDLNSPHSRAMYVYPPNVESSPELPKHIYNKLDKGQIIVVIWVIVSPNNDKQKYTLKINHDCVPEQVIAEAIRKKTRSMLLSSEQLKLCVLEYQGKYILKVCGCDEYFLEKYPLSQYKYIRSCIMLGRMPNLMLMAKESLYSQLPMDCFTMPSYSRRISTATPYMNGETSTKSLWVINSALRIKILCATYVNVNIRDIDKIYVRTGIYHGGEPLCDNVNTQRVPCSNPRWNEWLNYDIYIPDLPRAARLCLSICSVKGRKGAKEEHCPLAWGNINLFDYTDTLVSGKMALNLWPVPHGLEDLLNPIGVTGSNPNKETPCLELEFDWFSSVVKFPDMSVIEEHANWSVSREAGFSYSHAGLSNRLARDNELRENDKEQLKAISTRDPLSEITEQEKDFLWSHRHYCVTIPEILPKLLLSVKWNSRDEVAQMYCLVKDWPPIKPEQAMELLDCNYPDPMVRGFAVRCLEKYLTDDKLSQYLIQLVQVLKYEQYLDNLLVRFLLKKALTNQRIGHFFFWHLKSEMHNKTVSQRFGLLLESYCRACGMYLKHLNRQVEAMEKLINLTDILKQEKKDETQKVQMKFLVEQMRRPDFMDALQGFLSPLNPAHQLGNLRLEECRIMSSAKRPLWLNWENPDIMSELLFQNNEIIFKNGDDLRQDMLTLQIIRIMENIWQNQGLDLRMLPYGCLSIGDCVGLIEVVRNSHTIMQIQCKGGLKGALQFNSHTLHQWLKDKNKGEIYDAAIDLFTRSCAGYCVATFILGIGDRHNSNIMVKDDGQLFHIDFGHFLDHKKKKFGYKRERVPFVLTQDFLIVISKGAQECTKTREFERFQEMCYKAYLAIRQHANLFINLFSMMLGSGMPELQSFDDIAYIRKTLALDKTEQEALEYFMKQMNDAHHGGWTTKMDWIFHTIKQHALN
T1 sequence (P27986 whole entry partner): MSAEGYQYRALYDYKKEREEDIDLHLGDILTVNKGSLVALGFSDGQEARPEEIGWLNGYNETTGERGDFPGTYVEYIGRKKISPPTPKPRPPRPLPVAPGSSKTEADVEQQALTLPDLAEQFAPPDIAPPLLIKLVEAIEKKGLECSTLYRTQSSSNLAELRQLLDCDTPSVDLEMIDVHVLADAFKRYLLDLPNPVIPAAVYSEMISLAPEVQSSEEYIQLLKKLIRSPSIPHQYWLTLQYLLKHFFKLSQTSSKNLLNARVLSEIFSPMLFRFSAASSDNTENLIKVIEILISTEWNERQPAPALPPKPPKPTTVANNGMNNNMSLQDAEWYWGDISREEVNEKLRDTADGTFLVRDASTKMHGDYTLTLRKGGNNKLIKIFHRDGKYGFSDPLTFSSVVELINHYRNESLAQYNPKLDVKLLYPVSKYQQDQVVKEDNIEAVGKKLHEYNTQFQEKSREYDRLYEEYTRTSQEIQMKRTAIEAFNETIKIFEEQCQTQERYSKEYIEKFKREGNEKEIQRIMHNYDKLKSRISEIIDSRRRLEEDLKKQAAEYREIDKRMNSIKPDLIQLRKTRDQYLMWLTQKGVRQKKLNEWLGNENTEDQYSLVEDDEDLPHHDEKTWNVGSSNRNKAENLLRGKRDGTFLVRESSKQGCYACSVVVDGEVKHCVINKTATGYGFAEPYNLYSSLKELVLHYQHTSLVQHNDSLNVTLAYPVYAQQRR

IC50 [1] [nM]	IC50 (PC3 cells) [nM]	IC50 (mTOR kinase) [nM]	SMILES
< 50	100 to 500	< 50	CN1CCN(C(=O)c2ccc(NC(=O)Nc3ccc(-c4nc(N5CCOCC5)c5ncc(-c6cncnc6)cc5n4)cc3)cc2)CC1 [Example 67, 1-[4-(4-methyl-piperazine-1-carbonyl)-phenyl]-3-[4-(4-morpholin-4-yl-7-pyrimidin-5-yl-pyrido[3,2-d]pyrimidin-2-yl)-phenyl]-urea]
< 50	501 to 5000	< 50	CN(C)C(=O)c1ccc(NC(=O)Nc2ccc(-c3nc(N4CCOCC4)c4ccc(-c5ccnc(F)c5)cc4n3)cc2)cc1 [Example 68, 4-(3-{4-[7-(2-fluoro-pyridin-4-yl)-4-morpholin-4-yl-quinazolin-2-yl]-phenyl}-ureido)-N,N-dimethyl-benzamide]
50 to 200	501 to 5000	50 to 200	Cc1ccc(-c2ccc3c(N4CCOCC4)nc(-c4ccc(NC(=O)Nc5ccc(C(=O)N6CCN(C)CC6)cc5)cc4)nc3c2)o1 [Example 70, 1-{4-[7-(5-methyl-furan-2-yl)-4-morpholin-4-yl-quinazolin-2-yl]-phenyl}-3-[4-(4-methyl-piperazine-1-carbonyl)-phenyl]-urea]
< 50	501 to 5000	< 50	CN1CCN(C(=O)c2ccc(NC(=O)Nc3ccc(-c4nc(N5CCOCC5)c5ncc(-c6cnn(C)c6)cc5n4)cc3)cc2)CC1 [Example 73, 1-[4-(4-methyl-piperazine-1-carbonyl)-phenyl]-3-{4-[7-(1-methyl-1H-pyrazol-4-yl)-4-morpholin-4-yl-pyrido[3,2-d]pyrimidin-2-yl]-phenyl}-urea]
< 50	501 to 5000	50 to 200	CN(C)C(=O)c1ccc(NC(=O)Nc2ccc(-c3nc(N4CCOCC4)c4ccc(-c5cccs5)cc4n3)cc2)cc1 [Example 74, N,N-dimethyl-4-{3-[4-(4-morpholin-4-yl-7-thiophen-2-yl-quinazolin-2-yl)-phenyl]-ureido}-benzamide]
< 50	< 100	< 50	COc1ncc(-c2ccc3c(N4CCOCC4)nc(-c4ccc(NC(=O)Nc5ccc(C(=O)N(C)C)cc5)cc4)nc3c2)cn1 [Example 75, 4-(3-{4-[7-(2-methoxy-pyrimidin-5-yl)-4-morpholin-4-yl-quinazolin-2-yl]-phenyl}-ureido)-N,N-dimethyl-benzamide]
201 to 10000	501 to 5000	< 50	CN1CCN(C(=O)c2ccc(NC(=O)Nc3ccc(-c4nc(N5CCOCC5)c5ccc(-c6cncnc6)cc5n4)cc3)cc2)CC1 [Example 79, 1-[4-(4-methyl-piperazine-1-carbonyl)-phenyl]-3-[4-(4-morpholin-4-yl-7-pyrimidin-5-yl-quinazolin-2-yl)-phenyl]-urea]
50 to 200	501 to 5000	50 to 200	Cc1ccncc1-c1cnc2c(N3CCOCC3)nc(-c3ccc(NC(=O)Nc4ccc(C(=O)N(C)C)cc4)c(F)c3)nc2c1 [Example 116, 4-(3-(2-fluoro-4-(7-(4-methylpyridin-3-yl)-4-morpholino-pyrido[3,2-d]pyrimidin-2-yl)phenyl)ureido)-N,N-dimethyl-benzamide]
< 50	201 to 10000	< 50	CN(C)C(=O)c1ccc(NC(=O)Nc2ccc(-c3nc(N4CCOCC4)c4ncc(-c5cnn(C)c5)cc4n3)cc2F)cn1 [Example 124, 5-(3-(2-fluoro-4-(7-(1-methyl-1H-pyrazol-4-yl)-4-morpholino-pyrido[3,2-d]pyrimidin-2-yl)phenyl)ureido)-N,N-dimethylpicolinamide]
< 50	201 to 10000	< 50	Cc1noc(C)c1-c1cnc2c(N3CCOCC3)nc(-c3ccc(NC(=O)Nc4ccc(C(=O)N(C)C)cc4)c(F)c3)nc2c1 [Example 135, 4-(3-(4-(7-(3,5-dimethylisoxazol-4-yl)-4-morpholino-pyrido[3,2-d]pyrimidin-2-yl)-2-fluorophenyl)ureido)-N,N-dimethyl-benzamide]
< 50	201 to 10000	< 50	CC1CN(c2nc(-c3ccc(NC(=O)Nc4ccc(C(=O)N(C)C)cc4)cc3)nc3cc(-c4cncnc4)ccc23)CCO1 (stereo not drawn) [Example 138, N,N-dimethyl-4-(3-(4-(4-(2-methylmorpholino)-7-(pyrimidin-5-yl)quinazolin-2-yl)phenyl)ureido)-benzamide]
50 to 200	201 to 10000	< 50	Cc1noc(C)c1-c1cc2nc(-c3ccc(NC(=O)Nc4ccc(C(=O)N(C)C)cc4)cc3)nc(N3CCOCC3)c2cc1F [Example 143, 4-(3-(4-(7-(3,5-dimethylisoxazol-4-yl)-6-fluoro-4-morpholino-quinazolin-2-yl)phenyl)ureido)-N,N-dimethyl-benzamide]
< 50	201 to 10000	< 50	CN(C)C(=O)c1ccc(NC(=O)Nc2ccc(-c3nc(N4CCOCC4)c4ccc(-c5cnc(N(C)C)nc5)cc4n3)cc2)cc1 [Example 226, 4-(3-(4-(7-(2-(dimethylamino)pyrimidin-5-yl)-4-morpholino-quinazolin-2-yl)phenyl)ureido)-N,N-dimethyl-benzamide]
< 50	< 100	50 to 200	CNC(=O)c1ccc(NC(=O)Nc2ccc(-c3nc(N4CCOCC4)c4ccc(-c5ccco5)cc4n3)cc2)cc1 [Example 233, 4-(3-(4-(7-(furan-2-yl)-4-morpholine-quinazolin-2-yl)phenyl)ureido)-N-methyl-benzamide]
< 50	201 to 10000	< 50	CN(C)C(=O)c1ccc(NC(=O)Nc2ccc(-c3nc(N4CCOCC4)c4ccc(-c5cncnc5)cc4n3)cc2)cc1F [Example 240, 2-fluoro-N,N-dimethyl-4-(3-(4-(4-morpholino-7-(pyrimidin-5-yl)quinazolin-2-yl)phenyl)ureido)-benzamide]
< 50	201 to 10000	50 to 200	CN(C)C(=O)c1ccc(NC(=O)Nc2ccc(-c3nc(N4CCOCC4)c4ccc(-c5cccc(S(C)(=O)=O)c5)cc4n3)c(F)c2)cc1 [Example 245, 4-(3-(3-fluoro-4-(7-(3-(methylsulfonyl)phenyl)-4-morpholino-quinazolin-2-yl)phenyl)ureido)-N,N-dimethyl-benzamide]
< 50	201 to 10000	< 50	CN(C)C(=O)c1ccc(NC(=O)Nc2ccc(-c3nc(N4CCOCC4)c4ncc(-c5cncnc5)cc4n3)c(F)c2)cc1 [Example 250, 4-(3-(3-fluoro-4-(4-morpholino-7-(pyrimidin-5-yl)pyrido[3,2-d]pyrimidin-2-yl)phenyl)ureido)-N,N-dimethyl-benzamide]
50 to 200	201 to 10000	< 50	CN(C)C(=O)c1ccc(NC(=O)Nc2ccc(-c3nc(N4CCOCC4)c4ccc(-c5cccnc5F)cc4n3)cc2)cc1F [Example 255, 2-fluoro-4-(3-(4-(7-(2-fluoropyridin-3-yl)-4-morpholino-quinazolin-2-yl)phenyl)ureido)-N,N-dimethyl-benzamide]
50 to 200	201 to 10000	50 to 200	CN(C)C(=O)c1ccc(NC(=O)Nc2ccc(-c3nc(N4CCOCC4)c4cc(F)c(-c5cncnc5)cc4n3)c(F)c2)cc1 [Example 256, 4-(3-(3-fluoro-4-(6-fluoro-4-morpholino-7-(pyrimidin-5-yl)quinazolin-2-yl)phenyl)ureido)-N,N-dimethyl-benzamide]
